Read-outs that look alike come from different tables or passages of the source.
System: nuclear p27 in LNCaP-S14 cells
Assay type: cell-based, human
[1] = primary screening, nuclear p27 in LNCaP-S14 cells
[2] = primary screening, S = strong, M = medium, W = weak by Z score

SMILES	hit in primary screen (increased percentage of p27 positive cells) (LNCaP-S14, ~5 to 35 μM, 18 h)	Z score (aver) [1]	Clasf [2]	Clasf	Z score (aver)
C=CCNC1=C2C[C@@H](C)C[C@H](OC)[C@H](O)[C@@H](C)/C=C(\C)[C@H](OC(N)=O)[C@@H](OC)/C=C\C=C(/C)C(=O)NC(=CC1=O)C2=O [17-N-allylamino-17-demethoxygeldanamycin, reference compound]	identified	–	–	–	–
CCC1C=CC=CCC(C)C(O)C(C)(O)C(=O)C(C)C(O)C(C)C(=O)C(C)C(O)C(C)C=CC(=O)OC2C(C)C(CC1)OC1(CCC(C)C(CC(C)O)O1)C2C (centres unmarked) [500B11]	–	3.61	M (medium (Z score 3-5))	–	–
CCCCCCc1ccc(O)cc1O [500E16]	–	3.71	M (medium (Z score 3-5))	–	–
CC(C)COCC(CN(Cc1ccccc1)c1ccccc1)N1CCCC1.Cl (centres unmarked) [500F12]	–	5.49	S (strong (Z score > 5))	–	–
CCN(CC)CCOC(=O)C(c1ccccc1)C1CCCCC1.Cl (centres unmarked) [500G17]	–	2.62	W (weak (Z score 2-3)	–	–
O=C(O)C1CCCNC1 (centres unmarked) [500H10]	–	–	–	M (key: S: strong (Z score > 5); M: medium (Z score 3-5); W: weak (Z score 2-3)	3.12
CCN(CC)CCOC(=O)C1(C2CCCCC2)CCCCC1.Cl [500I04]	–	5.96	S (strong (Z score > 5))	–	–
Cl.N=C(N)NC(=O)c1nc(Cl)c(N)nc1N [500J04]	–	2.43	W (weak (Z score 2-3)	–	–
Clc1ccc(CSC(Cn2ccnc2)c2ccc(Cl)cc2Cl)cc1.O=[N+]([O-])O (centres unmarked) [500K22]	–	3.37	M (medium (Z score 3-5))	–	–
NCC(O)c1ccc(O)c(O)c1 (centres unmarked) [500L12]	–	9.42	S (strong (Z score > 5))	–	–
CN(C)c1ccc(O)c2c1CC1CC3C(N(C)C)C(O)=C(C(N)=O)C(=O)C3(O)C(O)=C1C2=O.Cl (centres unmarked) [501G12]	–	5.15	S (strong (Z score > 5))	–	–
Oc1ccc(Cl)cc1Cc1cc(Cl)ccc1O [501G22]	–	4.38	M (medium (Z score 3-5))	–	–
C[n+]1cc2c3c(ccc2c2ccc4cc5c(cc4c21)OCO5)OCO3.O=[N+]([O-])[O-] [501I17]	–	4.78	M (medium (Z score 3-5))	–	–
COC1CC(CC2CCC(C)C(C(C)C(=O)[O-])O2)OC2(OC(C)(C3CCC(C)(C4OC(C5OC(O)(CO)C(C)CC5C)CC4C)O3)CC2C)C1C.[Na+] (centres unmarked) [501K17]	–	5.95	S (strong (Z score > 5))	–	–
CCC1(O)CC(OC2CC(N(C)C)C(OC3CC(O)C(OC4CCC(=O)C(C)O4)C(C)O3)C(C)O2)c2c(cc3c(c2O)C(=O)c2c(O)cccc2C3=O)C1C(=O)OC (centres unmarked) [502B20]	–	3.61	M (medium (Z score 3-5))	–	–
CC(C)CC1C(=O)N2CCCC2C2(O)OC(NC(=O)C3C=C4c5cccc6[nH]c(Br)c(c56)CC4N(C)C3)(C(C)C)C(=O)N12.CS(=O)(=O)O (centres unmarked) [502C19]	–	2.62	W (weak (Z score 2-3)	–	–
Cc1cc(C2CCCCC2)n(O)c(=O)c1.NCCO [502D07]	–	4.86	M (medium (Z score 3-5))	–	–
CCCCC(CC)CNC(=N)NC(=N)NCCCCCCNC(=N)NC(=N)NCC(CC)CCCC.Cl (centres unmarked) [502E04]	–	9.20	S (strong (Z score > 5))	–	–
CC=C(C(=CC)c1ccc(O)cc1)c1ccc(O)cc1 [502G13]	–	2.95	W (weak (Z score 2-3)	–	–
CCC(C(=O)[O-])C1CCC(C)C(C(C)C(O)C(C)C(=O)C(CC)C2OC3(C=CC(O)C4(CCC(C)(C5CCC(O)(CC)C(C)O5)O4)O3)C(C)CC2C)O1.[Na+] (centres unmarked) [502H07]	–	6.22	S (strong (Z score > 5))	–	–

SMILES	hit in primary screen (increased percentage of p27 positive cells) (LNCaP-S14, ~5 to 35 μM, 18 h)	Z score (aver) [1]	Clasf [2]	Clasf	Z score (aver)
NC(CO)(CO)CO.O=C(c1ccccc1)c1ccc2n1CCC2C(=O)O (centres unmarked) [502J18]	–	2.67	W (weak (Z score 2-3)	–	–
Cc1ccc(-c2cc(C(F)(F)F)nn2-c2ccc(S(N)(=O)=O)cc2)cc1 [502M15]	–	2.59	W (weak (Z score 2-3)	–	–
CCCCCc1cc(O)c2c(c1)OC(C)(C)c1ccc(C)cc1-2 [503C05]	–	5.93	S (strong (Z score > 5))	–	–
COC12C(COC(N)=O)C3=C(C(=O)C(C)=C(N)C3=O)N1CC1NC12 (centres unmarked) [503O09]	–	–	–	M (key: S: strong (Z score > 5); M: medium (Z score 3-5); W: weak (Z score 2-3)	4.55
CS(=O)(=O)c1ccc(F)c(N2C(=O)C=CC2=O)c1 [518H15]	–	7.59	S (strong (Z score > 5))	–	–
CS(=O)(=O)c1ccc(C=CC(=O)Nc2cccc(C(F)(F)F)c2)cc1 [518N13]	–	5.55	S (strong (Z score > 5))	–	–
CS(=O)(=O)c1ccc(C=CC(=O)Nc2ccccn2)cc1 [518N17]	–	4.22	M (medium (Z score 3-5))	–	–
CS(=O)(=O)c1ccc2[nH]c(C(=O)N3CCN(c4ncccc4C(F)(F)F)CC3)cc2c1 [519A06]	–	2.71	W (weak (Z score 2-3)	–	–
Cl.O=C(OC(CCCN1CCOCC1)c1ccc(F)cc1)C(c1ccccc1)c1ccccc1 (centres unmarked) [519B04]	–	2.10	W (weak (Z score 2-3)	–	–
COc1ccccc1CNC1CC(C)(C)n2cccc21 (centres unmarked) [519F12]	–	2.47	W (weak (Z score 2-3)	–	–
CCOC(=O)c1cc2cccc(NC(=O)c3ccccc3OC(C)=O)c2[nH]1 [519O17]	–	9.25	S (strong (Z score > 5))	–	–
CCN(C(=O)c1ccc(C(C)(C)C)cc1)c1ccc(Sc2nc(C)cc(C)n2)cc1 [519P04]	–	5.16	S (strong (Z score > 5))	–	–
CC(C)(C)c1cc2cc(NC(=O)C3CC3)ccc2[nH]1 [520D04]	–	2.80	W (weak (Z score 2-3)	–	–
CC(C)(C)c1cc2cc(NC(=O)c3cccs3)ccc2[nH]1 [520D16]	–	3.98	M (medium (Z score 3-5))	–	–
CC(=O)N1CCC(N(C(=O)C2CC2)c2ccc3c(c2)CCN3C(C)=O)CC1 [520E02]	–	2.46	W (weak (Z score 2-3)	–	–
CCOC(=O)c1cc2cccc(NS(=O)(=O)c3cccc(C(F)(F)F)c3)c2[nH]1 [520F11]	–	7.25	S (strong (Z score > 5))	–	–
CC1CN(C(=O)c2cc(-c3ccc(Cl)cc3)cs2)CC(C)O1 (centres unmarked) [520H18]	–	6.87	S (strong (Z score > 5))	–	–
CC(C)(C)c1cc2cc(NC3CCN(C(=O)c4ccccc4Cl)CC3)ccc2[nH]1 [520N14]	–	2.16	W (weak (Z score 2-3)	–	–
Cc1cc(C)nc(N2CCN(C(=O)C(c3ccccc3)c3ccccc3)CC2)n1 [521H09]	–	2.35	W (weak (Z score 2-3)	–	–
O=C(Nc1ccccc1)Nc1ccc(SCc2nc(OCC(F)(F)F)cc(OCC(F)(F)F)n2)cc1 [521I09]	–	3.70	M (medium (Z score 3-5))	–	–

SMILES	hit in primary screen (increased percentage of p27 positive cells) (LNCaP-S14, ~5 to 35 μM, 18 h)	Z score (aver) [1]	Clasf [2]	Clasf	Z score (aver)
CC(C)(C)c1ccc(S(=O)(=O)Nc2ccc3[nH]c(C(C)(C)C)cc3c2)cc1 [521I15]	–	7.27	S (strong (Z score > 5))	–	–
COc1ccc(S(=O)(=O)Nc2ccc3[nH]c(C(C)(C)C)cc3c2)cc1 [521I17]	–	3.94	M (medium (Z score 3-5))	–	–
CC(C)(C)c1cc2cc(NS(=O)(=O)c3ccc(Cl)cc3)ccc2[nH]1 [521I19]	–	9.14	S (strong (Z score > 5))	–	–
CC(C)(C)c1ccc(C(=O)N2CCC(N(C3CC3)S(=O)(=O)c3cccc(C(F)(F)F)c3)CC2)cc1 [521J08]	–	2.93	W (weak (Z score 2-3)	–	–
CCCN1CCC(N(C(=O)c2ccc(NC(=O)C(c3ccccc3)c3ccccc3)cc2)C2CC2)CC1 [521L12]	–	4.02	M (medium (Z score 3-5))	–	–
Cc1[nH]cnc1-c1ccc(C(F)(F)F)cc1 [522D05]	–	3.87	M (medium (Z score 3-5))	–	–
COc1ccccc1CN(C(=O)Nc1ccc(F)cc1F)c1ccc2[nH]c(C(C)(C)C)cc2c1 [522J16]	–	4.05	M (medium (Z score 3-5))	–	–
CCC(=O)N(Cc1cccc(Cl)c1)c1ccc2[nH]c(C(C)(C)C)cc2c1 [522J18]	–	6.59	S (strong (Z score > 5))	–	–
COc1ccccc1NC(=O)N(Cc1cccc(Cl)c1)c1ccc2[nH]c(C(C)(C)C)cc2c1 [522L04]	–	4.02	M (medium (Z score 3-5))	–	–
O=C(C(c1ccccc1)c1ccccc1)N(Cc1ccc(Cl)cc1)Cc1ccc2cc[nH]c2c1 [522N04]	–	2.29	W (weak (Z score 2-3)	–	–
COc1ccc(S(=O)(=O)N(Cc2ccc(Cl)cc2)Cc2ccc3cc[nH]c3c2)cc1 [522N08]	–	3.74	M (medium (Z score 3-5))	–	–
COc1ccc(S(=O)(=O)Nc2cccc3cc(C(=O)NCc4ccc(Cl)cc4)[nH]c23)cc1 [522N16]	–	5.29	S (strong (Z score > 5))	–	–
CCN(CC)c1ccc(NCN2C(=O)c3ccccc3C2=O)c(C)c1 [541E03]	–	2.75	W (weak (Z score 2-3)	–	–
CCCCc1ccc(NC(C)=O)c(C)c1 [541G02]	–	–	–	S (key: S: strong (Z score > 5); M: medium (Z score 3-5); W: weak (Z score 2-3)	7.67
O=C(c1ccc(Cl)nc1)N(Cc1ccc(-c2cccs2)s1)C1CC1 [541H08]	–	2.92	W (weak (Z score 2-3)	–	–
CC(=O)Nc1ccc(S(=O)(=O)N(Cc2ccc3c(c2)CCO3)C2CC2)cc1 [541J07]	–	3.47	M (medium (Z score 3-5))	–	–
CCN(C(=S)Nc1cccc(C(F)(F)F)c1)c1ccccc1 [541K01]	–	4.12	M (medium (Z score 3-5))	–	–
S=C(NCc1ccccc1)Nc1ccc(Br)cc1 [541M20]	–	4.62	M (medium (Z score 3-5))	–	–
CCCCCCSc1nnc(N)s1 [541O08]	–	8.05	S (strong (Z score > 5))	–	–
O=C1C(Cl)=C(N2CCC(C(=O)N3CCOCC3)CC2)C(=O)c2ccccc21 [567A03]	–	6.25	S (strong (Z score > 5))	–	–

— article PMC3025922 (BMC Biology, 2010)
